Measured values from patent publication US8822526B2, “Synergistic pharmaceutical combination for the treatment of cancer” (Piramal Enterprises Limited, priority 2007, dated 2014).

Key:
cyclin D1 = experiment: Western blot analysis; type: cell-based, human; conditions: H-460; doxorubicin 100 nM 24 hours; compound A 1200 nM 96 hours; combination sequential; FIG. 6
Description: (§1) At the end of the treatment period cells were lysed and protein content of the lysate was estimated using the Bradford reagent. 40 μg of protein was loaded on SDS-PAGE and transferred on PVDF membrane. The membranes were probed with p53, Bax, Bcl-2, cyclin D1, Cdk1 and actin antibodies. The primary antibody were detected with horseradish […] secondary antibody and subjected to west pico chemiluminescence reagents.
(§2) Equal amount of protein was loaded in the four lanes. The different samples loaded in the wells are described in the figure legend. […] This correlates with the increased apoptosis seen in the combination treatment in FACS analysis. The pro-apoptotic protein Bax is slightly up regulated with respect to control in all treatment samples. […] Cdk1-B1 is an initiator of mitosis. The deregulation of this enzyme leads to tumorigenesis.

Cdk1 = experiment: Western blot analysis; type: cell-based, human; conditions: H-460; doxorubicin 100 nM 24 hours; compound A 1200 nM 96 hours; combination sequential; FIG. 6
Description: as §1, §2

[1] = system: human non-small cell lung carcinoma H-460; experiment: Analysis of cell cycle distribution and flow cytometry (sub G1 apoptosis); type: cell-based
Description: The human non-small cell lung carcinoma H-460 was seeded in 25 mm^3 tissue culture flasks. […] The control cells were left untreated for 96 hours or 120 hours. Both detached and adherent cells were harvested at different time points. The cells were washed twice with approximately 5 mL of PBS with centrifugation at 1000 rpm for 10 minutes. The cells were re-suspended in 500 μL of PBS and fixed in 500 μL ice-cold 70% ethanol. The fixed cells were incubated at room temperature for 30 minutes, spun at 1000 rpm for 10 minutes. To the cell pellet 1 mL of chilled 70% ethanol was added and the cell pellet was then kept in fridge till further analysis. Cells were washed twice with PBS to remove fixative and re-suspended in 250 μL PBS. To this 50 μL of propidium iodide (4 mg/mL in PBS) and 12.5 μL Rnase A (1 mg/mL) was added. After incubation at 37° C. for 30 minutes, cells were analyzed using flow cytometry.
A Becton Dickinson FACS Calibur flow cytometer was used in accordance with the manufacturer's recommendations. The argon ion laser set at 488 nm was used as an excitation source. Cells with DNA content between 2n and 4n were designated as being in G1, S and G2/M phases of the cell cycle, as defined by the level of red fluorescence. […] The number of cells in each cell cycle compartment was expressed as a percentage of the total number of cells present
About 1-2×10^6 cells were seeded in a tissue culture flask for the treatment groups. The assay protocol was as mentioned above in “analysis of cell cycle distribution and flow cytometry”. The cell cycle was divided in four parts, which are represented in the FIG. 1 as M1, M2, M3 and M4. M1 corresponds to the G1 phase, M2 to the S phase, M3 to the G2-M phase and M4 to the sub G1 phase, which represents the cells undergoing apoptosis.
About 1-2×10^6 cells were seeded in a tissue culture flask for the treatment groups. The assay protocol was as mentioned above in “analysis of cell cycle distribution and flow cytometry”. The cell cycle was divided in four parts, which are represented in the figure as M1, M2, M3 and M4. M1 corresponds to the G1 phase, M2 to the S phase, M3 to the G2-M phase and M4 to the sub G1 phase, which represents the cells undergoing apoptosis.

[2] = system: human non-small cell lung carcinoma H-460; experiment: Annexin V-FITC staining (detection of early apoptosis); type: cell-based; conditions: doxorubicin 100 nM 24 hours; compound A 1200 nM 96 hours; combination doxorubicin 24 hours followed by compound A 96 hours
Description: Annexin V-FITC is a sensitive probe for identifying apoptotic cells. During early apoptosis the membrane phospholipid phosphotidyl serine (PS) is translocated from the inner to the outer leaflet of the plasma membrane, thereby exposing PS to the external cellular environment. Annexin V is a 35-36 kDa Calcium phospholipid binding protein that has a high affinity for PS and binds to cells with exposed PS. […] The human non-small cell lung carcinoma H-460 was seeded in 25 mm^3 tissue culture flasks. […] The control cells were left untreated for 120 hours. Medium containing floating cells were collected and pooled with the adherent cells after harvesting with trypsin at the different time points. The cells were washed twice with cold PBS with centrifugation at 1000 rpm for 10 minutes. The cell pellet was resuspended in 1× binding buffer (10 mm HEPES pH 7.4, 140 mM NaCl, 2.5 mM CaCl2) at a concentration of 1×10^6 cells/mL. 100 μl of the solution (1×10^5 cells) were stained with Annexin V-FITC and Propidium Iodide. The cells were incubated for 15 minutes at room temperature in the dark and the sample was analysed by flow cytometry. A Becton Dickinson FACS Calibur flow cytometer was used for these studies in accordance with the manufacturer's recommendations. The argon ion laser set at 488 nm was used as an excitation source. […] If the cells even after the termination of compound exposure continue to go into apoptosis, they would stain positive for annexin. The cells once in early apoptosis are committed to programmed cell death and at a point of no return.

COX-2 = experiment: Western blot analysis using COX-2 antibody; type: in vivo, human; conditions: H-460 tumor xenograft; FIG. 9
Text: FIG. 9 indicates western blot analysis using COX-2 antibody.
Therefore, NFκB mediated inhibition of COX-2 by the compound A could be involved in suppressing tumor growth and doxorubicin induced chemoresistance in human non-small cell lung carcinoma (H-460) tumor xenograft.

[3] = FIG. 1: 200 nM doxorubicin alone (24 hours), 800 nM compound A alone (72 hours), combination 200 nM doxorubicin (24 hours) followed by 800 nM compound A (72 hours)
[4] = FIG. 2: 100 nM doxorubicin alone (24 hours), 1200 nM compound A alone (96 hours), combination 100 nM doxorubicin (24 hours) followed by 1200 nM compound A (96 hours)

| Structure (SMILES) | Cyclin D1 levels (western blot) (cyclin D1) | Cdk1 levels (western blot) (Cdk1) | apoptosis (sub G1 phase) [1, 3] [%] | apoptosis (sub G1 phase) [1, 4] [%] | Annexin + ve (%) (cells in early apoptosis) [2] | Annexin and PI + ve (%) (cells in early to late apoptosis) [2] | Live cells (%) (healthy cells) [2] | PI + ve (%) (dead cells) [2] | COX-2 levels (western blot) (COX-2) |
| --- | --- | --- | --- | --- | --- | --- | --- | --- | --- |
| CN1CC[C@@H](c2c(O)cc(O)c3c(=O)cc(-c4ccccc4Cl)oc23)[C@@H]1CO.Cl [Compound A, (+)-trans-2-(2-Chloro-phenyl)-5,7-dihydroxy-8-(2-hydroxymethyl-1-methyl-pyrrolidin-3-yl)-chromen-4-one hydrochloride] | slight reduction | levels equal to control | 10 | 32 | 38.5 | 8.2 | 53 | 0.3 | low levels of COX-2 |
| COc1cccc2c1C(=O)c1c(O)c3c(c(O)c1C2=O)C[C@@](O)(C(=O)CO)C[C@@H]3O[C@H]1C[C@H](N)[C@H](O)[C@H](C)O1 [Doxorubicin] | slight reduction | significantly induces Cdk1 levels | 10 | 3 | 30.4 | 8.6 | 60 | 1 | strongly induced COX-2 |
